Measurements: article PMC12040169 (PLOS Biology, 2025)

Experiment: in vitro
Settings: human, hela cells, % viability

Structure (SMILES) | viability at 28.5 h, 10 µM [%]
COc1ccc(C(C)C)cc1-c1cncc(N[C@@H](C)c2ccccc2)n1 [CBK065504] | 115
O=C(O)c1cccc(NS(=O)(=O)c2ccc(OC(F)(F)F)cc2)c1 [CBK155077] | 92.7
COc1cc2c(cc1OC)CN(Cc1ccccc1[N+](=O)[O-])CC2 [CBK261535] | 89.8
O=C(NCc1ccc2c(c1)CCCO2)C1CC2C=CC1C21CC1 (centres unmarked) [CBK281503] | 89.1
Nc1nc(=O)[nH]c2c1ncn2[C@H]1C[C@@H](O)[C@@H](CO)O1 [CBK201323] | 86
CC(=O)Nc1cccc(-c2nccnc2NCC(c2cccnc2)N(C)C)c1 (centres unmarked) [CBK037998] | 95.6
CC(=O)c1cc2c(N)c(/C(N)=N/C#N)sc2nc1C [CBK021202] | 70.7
CC(Nc1n[nH]c(=O)[nH]c1=O)C(=O)N/N=C/c1ccccc1O (centres unmarked) [CBK263526] | 91.7
Cc1cccc(C(=O)Nc2ccc3oc(-c4cccnc4)nc3c2)c1 [CBK073161] | 82.7
CSCCCNC(=O)c1ccc(-c2ccoc2)nc1 [CBK156262] | 99
O=[N+]([O-])c1cc(C(F)(F)F)ccc1NCCNC(=S)Nc1ccc(Cl)cc1 [CBK263578] | 92.9
CCOC(=O)N1CCN(Cc2ccc(OCc3cccnc3)cc2)CC1 [CBK305883] | 79.1
CCNC(=O)N1CC2(CCN(CC(N)=O)CC2)c2ccccc21 [CBK126701] | 95.3
Cc1nc(N2CCOCC2)[nH]c(=O)c1CCC(=O)Nc1ccc(F)cc1 [CBK304990] | 91.1
FC(F)(F)c1ccc(CN2CCN(c3nccnc3OCC3COc4ccccc4O3)CC2)cc1 (centres unmarked) [CBK082789T] | 115
OCCCc1[nH]nc(-c2ccc(Cl)cc2)c1Br [CBK006993] | 59.2
CN(C)CC(C)(C)CNC=C1C(=O)CC(C)(C)CC1=O [CBK262046] | 99.9
CN1C(=O)[C@@H](OC(=O)c2cccnc2)C[C@H]1c1ccc(F)cc1 [CBK283649] | 104
O=C(C[C@@H]1CCNC[C@@H]1Cc1cc(-c2ccccc2)on1)Nc1cccc(O)c1 [CBK289149] | 102
O=C(Nc1ccc(NC(=O)C2CC=CCC2C(=O)O)cc1Cl)C1CCCCC1 (centres unmarked) [CBK268772] | 89.7
COc1ccc(CNc2nc(-c3ccc(C)cc3)nn2C(=O)c2cccc([N+](=O)[O-])c2)cc1 [CBK268546] | 67.9
CS(=O)(=O)NC1CCCN(c2ncnc3ccccc23)C1 (centres unmarked) [CBK305619] | 111
CC(=O)OC(C(=O)O)C(OC(C)=O)c1nc2ccccc2s1 (centres unmarked) [CBK264076] | 99.3

Structure (SMILES) | viability at 28.5 h, 10 µM [%]
COc1ccc(F)c(CN2CC3CCCN3C[C@@H]2C)c1 (some centres unmarked) [CBK284549] | 86.9
COc1ccc(C)cc1S(=O)(=O)Nc1cc(N2CCNC(C(F)(F)F)C2)c2occc2c1 (centres unmarked) [CBK073818C] | 104
COc1ccccc1CCC(=O)Nc1cnn(C)c1 [CBK287995] | 117
NS(=O)(=O)c1ccc(/N=C/c2ccc(OCc3ccccc3)cc2)cc1 [CBK261585] | 98.3
Cc1ccc(CN(CCCn2ccnc2)Cc2ccsc2)o1 [CBK283253] | 96.4
Cc1ccc(Nc2cc(-c3ccsc3)ncn2)cc1NS(C)(=O)=O [CBK091149] | 97.9
CN(C)c1ncc(-c2ccccc2)c(C2CCCN2Cc2ccc3ncccc3c2)n1 (centres unmarked) [CBK286256] | 77.6
COC(=O)c1c(NC(=O)C(=O)NCc2cccnc2)sc2c1CCCC2 [CBK269170] | 88.8
COc1ccccc1N1CCN(c2c(C)c(C)nc3cc(-c4nccn4C)nn23)CC1 [CBK286182] | 87.5
CC(=O)c1cccc(NS(=O)(=O)c2ccc(OC(F)(F)F)cc2)c1 [CBK043606] | 88.5
O=C(NCc1ccc(OC(F)(F)F)cc1)c1cnoc1-c1ccc(F)cc1 [CBK154952] | 100
Clc1ccccc1CSc1nc[nH]n1 [CBK026950] | 98.5
CCNC(=O)N1CC2(CCN(Cc3csc(C)n3)CC2)c2ccccc21 [CBK126712] | 103
Cc1nc2c(c(N(C)C)n1)CCN(C(=O)c1cnn(C(C)C)c1)C2 [CBK307083] | 109
O=C(NCCc1ccsc1)N1CCN(c2ccncc2)CC1 [CBK305595] | 102
COc1ccccc1-c1cn2ccnc2c(Nc2cccc(Cl)c2)n1 [CBK066399] | 89.4
O=C(O)CCNc1ncnc2ccccc12 [CBK126920] | 99.4
COc1ccc(F)c(CNCCNC(=O)OC(C)(C)C)c1 [CBK056699] | 93.9
CSc1nc2ccc3nc(NC(C)=O)sc3c2s1 [CBK287567] | 106
O=C(NCO)c1ccccc1O [CBK012717] | 93.9
Cc1nc2ccc(C(=O)NCCCN3CC(C)CC(C)C3)cc2[nH]1 (centres unmarked) [CBK283298] | 85.4
CCN(CC)CCn1c(=N)n(CC(O)c2ccc(C)cc2)c2ccccc21 (centres unmarked) [CBK262914C] | 104
Cc1nc2c(s1)C[C@@H]1[C@](C)(CO)[C@H](O)CC[C@@]1(C)[C@@H]2CC(=O)O [CBK289571] | 93.3

Structure (SMILES) | viability at 28.5 h, 10 µM [%]
COc1cc(-c2cncc(N(C)CCN(C)C)n2)cc(OC)c1OC [CBK065312] | 90.5
O=S(=O)(NCc1ccc2c(c1)OCO2)c1ccc2c(c1)oc1ccccc12 [CBK268308] | 104
O=C1NC2(CCCCC2)C(=O)N1CCS(=O)(=O)Oc1ccc(Br)cc1 [CBK261303] | 93.5
COc1cc(/C=N/NC(=O)CCn2c3ccccc3c3ccccc32)ccc1O [CBK262332] | 73
Cc1ccc(Cc2cnc(NC(=O)c3ccoc3C)s2)cc1C [CBK298277] | 80.1
N/C(=N/OCC(=O)Nc1cccc2ccccc12)c1nonc1N [CBK265234] | 90.6
Clc1ccccc1-c1nccnc1NCc1ccncc1 [CBK037472] | 89.2
CC(=O)NCCc1c(C(=O)O)[nH]c2ccc(OCc3ccccc3)cc12 [CBK260945] | 87.8
CC(CCCC(C)(C)O)NCCO (centres unmarked) [CBK262340] | 96.3
CN1CCN(CCOC(=O)N2CCCC(F)(F)C2)CC1 [CBK200208] | 105
Cc1cccc(S(=O)(=O)Nc2cc(OCCN3CCOCC3)c3occc3c2)c1 [CBK067420C] | 90.4
CCC1(c2ccccc2)OCC(C2CCCCN2)O1 (centres unmarked) [CBK023284C] | 85.7
Nc1ccccc1SC(CC(=O)c1ccccc1)c1ccc2c(c1)OCO2 (centres unmarked) [CBK074823] | 80.2
CCCc1cc(C(=O)N(C)CCOc2ccccc2)[nH]n1 [CBK283162] | 91.7
O=C(Nc1cccnc1)c1c(O)n(Cc2ccccc2)c2ccccc2c1=O [CBK291206] | 110
CN(Cc1ccc(-c2ccc(S(C)(=O)=O)cc2)nc1)C1CCNCC1 [CBK163942] | 99.1
N#CCCN(C(=O)NC1CCc2ccccc21)C1CCCCC1 (centres unmarked) [CBK156383] | 95.5
COc1ccc(N2CCN(Cc3nc4c(c(=O)n(C)c(=O)n4C)n3C(C)C(C)=O)CC2)cc1 (centres unmarked) [CBK269453] | 88.7
COc1cccc(CN2CCCN(c3nccc(OCC4COc5ccccc5O4)n3)CC2)c1OC (centres unmarked) [CBK115476T] | 108
Cc1ccc(OCC(=O)NC(=S)Nc2cccc(-c3nc4ncccc4o3)c2C)cc1 [CBK263925] | 109
Nc1ccc(Oc2ccc(-n3c(=O)c4cc5c(=O)n(-c6ccc(Oc7ccc(N)cc7)cc6)c(=O)c5cc4c3=O)cc2)cc1 [CBK261489] | 104
Cn1ncc2c(NCc3cccc(Cn4cncn4)c3)ncnc21 [CBK304241] | 89.9
Cc1nc2ccc(NC(=S)N3CCN(c4ccccn4)CC3)cc2nc1C [CBK267227] | 67.1

Structure (SMILES) | viability at 28.5 h, 10 µM [%]
CCOc1cccc(-c2cn3ccnc3c(NCc3cc(OC)c(OC)c(OC)c3)n2)c1 [CBK066717] | 96.7
O=C(c1cccnc1)N1CCN(C2CC(=O)N(c3ccc(F)cc3)C2=O)CC1 (centres unmarked) [CBK270049] | 91.5
CCN(CC)CCN1CCN(c2cncc(-c3cccs3)n2)CC1 [CBK065703] | 95.5
O=C(O)Cc1nn(Cc2ccccc2)c(=O)c2ccccc12 [CBK262315] | 115
N#C/C(=C(/O)c1ccc(-c2ccc([N+](=O)[O-])cc2Cl)o1)c1nc(-c2ccc(F)cc2)cs1 [CBK266742] | 91
CC(C)[C@H](CO)Nc1nc(-c2ccc(CCC(=O)O)cc2)cn2ccnc12 [CBK037522] | 92.7
CN1CCN(C(C(=O)O)c2cn(CCC(=O)O)c3ccc(Br)cc23)CC1 (centres unmarked) [CBK286698] | 103
Nc1ncc(-c2ccccc2O)nc1-c1ccc(O)cc1 [CBK115548] | 78.5
c1cncc(Nc2cccc(-c3cnc4ccccc4c3)n2)c1 [CBK037638] | 98.8
Cc1cc(Nc2ccc(I)cc2)n2ncnc2n1 [CBK027364] | 100
Cn1c(N)nc2c(ncn2[C@H]2C[C@@H](O)[C@@H](CO)O2)c1=O [CBK201215] | 105
Cc1c(-c2cncn2CC(=O)NC(C)(C)C)[nH]c2ccccc12 [CBK281911] | 87.5
CC1CCc2noc(C3CCN(C(=O)c4ccnn4C)CC3)c2C1 (centres unmarked) [CBK285232] | 105
CCNc1nnc(-c2c(Cl)c(C)nn2C)s1 [CBK288014] | 92.5
CS(=O)(=O)c1ccc2nc(NC(=O)c3cccs3)sc2c1 [CBK287340] | 92.6
CN(C)c1ncccc1OC1CCN(c2ccnc(C3CC3)n2)C1 (centres unmarked) [CBK306182] | 56.3
Cc1ccc(NC(=O)C2CC(=O)Nc3nc(SCc4ccccc4C)[nH]c(=O)c32)c(C)c1 (centres unmarked) [CBK294438] | 91
C=CCN1C(=O)CC2(C1=O)C(=O)N(C)c1ccc(OC)cc12 (centres unmarked) [CBK075158] | 101
OCCNc1nc(Cl)nc(Nc2nc(-c3ccccc3)cs2)n1 [CBK261381] | 86.2
CN(C)CCn1c(=O)[nH]c2ncc(-c3ccco3)nc21 [CBK064251] | 97.1
